Assay [1] deals with T1, human thyroid receptor alpha ligand-binding domain (THRα) (Homo sapiens, UniProt P10827).
T1 construct: purchased Invitrogen
The experiment in a line: THR Biochemical Assay (Assay 1): TR-FRET thyroid receptor coactivator assay, alpha LBD. The following applies: TR-FRET coactivator recruitment; for Emax: read-out: Activity category Assay 1 THRα (Emax); for EC50: agonist EC50, read-out: Activity category Assay 1 THRα (EC50). The source says: (§1) THR Biochemical Assay (sAsay 1)
(§2) The TR-FRET thyroid receptor beta coactivator assay was used with slight, optimized modifications of the manufacturer's protocol (Invitrogen). The assay uses a terbium-labeled anti-GST antibody, a glutathione-S-transferase (GST) tagged human thyroid receptor, beta or alpha, ligand-binding domain (LBD), and a fluorescein labeled SRC2-2 coactivator peptide. The antibody interacts with the LBD, where the agonist also binds, resulting in increased affinity for the SRC2-2 coactivator peptide causing energy transfer of the acceptor fluorophore and a FRET emission shift from 495 to 520 nm. The energy transfer is detected as an increase in the fluorescence emission of the fluorescein acceptor, and a decrease in the fluorescence emission of the terbium donor. The assay is performed in a 384-well black plate in a final volume of 20 μL. Serial dilution of various test agonists was performed in DMSO (1% final DMSO concentration) and added to the test plate. Thyroid receptor beta LBD is added to the plate at a final concentration of 1 nM, followed by the mixture of the fluorescein labeled SRC2-2 coactivator peptide, and the terbium-labeled anti-GST antibody at final concentrations of 200 nM and 2 nM respectively. The assay is incubated for 1 h at rt protected from light. The TR-FRET is then measured on a Victor multilabel reader (Perkin Elmer) using an excitation wavelength of 340 nm with emission filters of 495 nm and 520 nm. The assay is quantified by expressing a ratio (520:495) of the intensities, and the resulting activation curves; EC50 values were generated using a sigmoidal dose response (variable slope) equation in GraphPad™ Prism 8.0.
(TR-FRET usually uses a lanthanide donor and a delayed reading to cut background.)

Assay [2] deals with T2, human thyroid receptor beta ligand-binding domain (THRβ) (Homo sapiens, UniProt P10828).
T2 construct: purchased Invitrogen
T2 sequence (P10828 217-461 limits assumed): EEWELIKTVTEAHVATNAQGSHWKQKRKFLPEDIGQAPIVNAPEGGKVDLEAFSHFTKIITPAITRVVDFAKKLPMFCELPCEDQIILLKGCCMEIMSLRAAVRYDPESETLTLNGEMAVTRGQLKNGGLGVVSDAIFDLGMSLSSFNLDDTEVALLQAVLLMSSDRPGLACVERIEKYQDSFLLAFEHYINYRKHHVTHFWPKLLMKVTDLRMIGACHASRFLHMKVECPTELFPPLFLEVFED
Kind of assay: THR Biochemical Assay (Assay 1): TR-FRET thyroid receptor beta coactivator assay. The conditions noted are these: TR-FRET coactivator recruitment, THRβ LBD; for Emax: read-out: Activity category Assay 1 THRβ (Emax); for EC50: agonist EC50, read-out: Activity category Assay 1 THRβ (EC50).
From the text: as §1, §2

Assay [3] relates to Huh-7 cells. The experiment in a line: Huh-7 Differential Gene Expression (Assay 2): CPT1A RT-qPCR. The assay is classed as cell-based. The following applies: Homo sapiens, CPT1A gene expression in Huh-7 cells, 24 hr treatment, TH-depleted DMEM; for EC50: read-out: Activity category Assay 2 EC50; for Emax: read-out: Activity category Assay 2 Emax. As for the experimental part: Huh-7 Differential Gene Expression (Assay 2)
Fetal bovine serum (FBS) was incubated with washed resin (50 mg resin/mL FBS; resin weight is dry weight of resin prior to washing) for 5 hr at room temperature on a rotor. The FBS was separated from the resin via centrifugation and incubated with new, washed resin for 18h at room temperature on a rotor.
Cell Culture and Drug Treatment
Huh-7 cells were cultured in DMEM (10-013-CM, Corning) supplemented with 10% FBS and 1% Pen-Strep at 37° C. under 5% CO2. When 70-80% confluence was reached, the cells were removed by trypsinization. The medium was aspirated from the cell culture dish, the cell monolayer was washed with 1× PBS, and 0.05% trypsin, 0.53 mM EDTA (25-052-CV, Corning) solution was added to the dish. After 3 min incubation, the cells were detached completely by repeatedly pipetting solution onto the monolayer. Equal volume of DMEM supplemented with 10% rFBS and 1% Pen-Strep (TH-depleted DMEM) was added to the dish to inactivate the trypsin. The cell suspension was centrifuged at 350×g at room temperature for 3 min. The supernatant was aspirated out and the cell pellet was resuspended in TH-depleted DMEM. […] After 24 hr incubation, the media was replaced with treatment media. All compounds were serially diluted in DMSO and final concentrations were reached by dilution in TH-depleted DMEM (0.1% DMSO). The cells were incubated in treatment media for 24 hr. Treatments were performed in biological duplicates.
After 24 h in treatment media, the cells were lysed directly on the culture plates and cDNA was produced using the TaqMan™ Fast Advanced Cells-to-CT™ Kit (A35374, Invitrogen) and following the manufacturer's protocol. RT-qPCR for CPT1A (Hs00912671_m1) and two housekeeping genes, ACTB (Hs01060665_g1) and TFG (Hs02832013_g1), was performed using TaqMan™ Fast Advanced Master Mix. RT-qPCR reactions were run on the qTOWER^3 84 G (Analytik Jena) in technical duplicates.
ΔRn values were obtained from the qPCRsoft384 1.0 software and CPT1A gene expression was quantified via the 2ΔΔCt method. Dose-response curves were generated using GraphPad Prism 8 using four parameter logistic equation without top constraint to derive EC50 and Emax.
Background: Quantitative PCR measures a nucleic acid by following its amplification.

Molecules are shown by their SMILES.

As usually defined, the Emax is the greatest response seen or fitted, relative to the assay's reference. As usually defined, the EC50 is the concentration that produces a half-maximal response.

T1 sequence (P10827 163-410 isoform P10827-2 limits assumed, other chains not shown): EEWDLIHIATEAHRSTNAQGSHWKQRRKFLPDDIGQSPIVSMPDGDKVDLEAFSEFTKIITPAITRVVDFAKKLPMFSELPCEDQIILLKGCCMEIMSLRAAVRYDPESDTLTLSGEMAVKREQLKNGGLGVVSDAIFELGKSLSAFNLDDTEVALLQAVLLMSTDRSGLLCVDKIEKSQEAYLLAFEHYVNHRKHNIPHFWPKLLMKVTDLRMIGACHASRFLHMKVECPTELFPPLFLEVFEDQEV

With `Cc1cc(OCC(=O)O)c(C)c(C)c1Cc1ccc2[nH]cc(C(C)C)c2n1` [Compound 1, 2-(4-((3-isopropyl-1H-pyrrolo[3,2-b]pyridin-5-yl)methyl)-2,3,5-trimethylphenoxy)acetic acid], the Emax was less than 50% in assay [1], less than 50% in assay [2] and more than 75% in assay [3]. For the same molecule, the EC50 in assay [1] was 250 to 1000 nM; in assay [2], less than 50 nM; in assay [3], 100 to 1000 nM.

On to `Cc1cc(OCC(=O)O)cc(C)c1Cc1ccc2[nH]cc(C(C)C)c2n1` [Compound 2, 2-(4-((3-isopropyl-1H-pyrrolo[3,2-b]pyridin-5-yl)methyl)-3,5-dimethylphenoxy)acetic acid], for which the maximum response (Emax) in assay [1] is less than 50%; in assay [2], less than 50%; in assay [3], more than 75%. Further, the EC50 in assay [1] was 50 to 250 nM; in assay [2], less than 50 nM; in assay [3] it was less than 100 nM.

In the case of `Cc1cc(NC(=O)c2noc(=O)[nH]2)cc(C)c1Cc1ccc2[nH]cc(C(C)C)c2n1` [Compound 3, N-(4-((3-isopropyl-1H-pyrrolo[3,2-b]pyridin-5-yl)methyl)-3,5-dimethylphenyl)-5-oxo-4,5-dihydro-1,2,4-oxadiazole-3-carboxamide], in assay [1], the Emax was less than 50% and the EC50 was less than 50 nM. Moreover, in assay [2], the Emax is less than 50% and the EC50 was less than 50 nM.

On to `Cc1cc(NC(=O)C(=O)O)cc(C)c1Cc1ccc2[nH]cc(C(C)C)c2n1` [Compound 4, 2-((4-((3-isopropyl-1H-pyrrolo[3,2-b]pyridin-5-yl)methyl)-3,5-dimethylphenyl)amino)-2-oxoacetic acid], for which, in assay [1], the Emax was less than 50% and the EC50 is less than 50 nM. In assay [2], the Emax lay in the range of 50 to 75% and the EC50 is less than 50 nM.

As to `CCOC(=O)C(=O)Nc1cc(C)c(Cc2ccc3[nH]cc(C(C)C)c3n2)c(C)c1` [Compound 5, ethyl 2-((4-((3-isopropyl-1H-pyrrolo[3,2-b]pyridin-5-yl)methyl)-3,5-dimethylphenyl)amino)-2-oxoacetate], in assay [1], the Emax was less than 50% and the EC50 was less than 50 nM. In assay [2], the Emax is less than 50% and the EC50 was less than 50 nM.

Turning to `Cc1nc(OCC(=O)O)c(C)c(C)c1Cc1ccc2[nH]cc(C(C)C)c2n1` [Compound 6, [[5-([3-isopropyl-1H-pyrrolo[3,2-b]pyridin-5-yl]methyl)-3,4,6-trimethylpyridin-2-yl]oxy]acetic acid], the Emax in assay [1], in assay [2] and in assay [3] was less than 50% throughout. The EC50 in assay [1] lay within 1000 to 25000 nM; in assay [2], 50 to 250 nM; in assay [3], 100 to 1000 nM.

In the case of `Cc1cc(OC(C)C(=O)O)c(C)c(C)c1Cc1ccc2[nH]cc(C(C)C)c2n1` (stereo not drawn) [Compound 7, 2-(4-((3-isopropyl-1H-pyrrolo[3,2-b]pyridin-5-yl)methyl)-2,3,5-trimethylphenoxy)propanoic acid], the Emax in assay [1] and in assay [2] was less than 50% in each case. In addition, the EC50 in assay [1] was more than 25000 nM; in assay [2], 1000 to 25000 nM.

In the case of `Cc1cc(OC(C)(C)C(=O)O)c(C)c(C)c1Cc1ccc2[nH]cc(C(C)C)c2n1` [Compound 8, 2-(4-((3-isopropyl-1H-pyrrolo[3,2-b]pyridin-5-yl)methyl)-2,3,5-trimethylphenoxy)-2-methylpropanoic acid], in assay [1], the Emax was less than 50% and the EC50 is more than 25000 nM. For the same molecule, in assay [2], the Emax was less than 50% and the EC50 is less than 50 nM.

As to `Cc1cc(OC(F)C(=O)O)c(C)c(C)c1Cc1ccc2[nH]cc(C(C)C)c2n1` (stereo not drawn) [Compound 9, 2-fluoro-2-(4-((3-isopropyl-1H-pyrrolo[3,2-b]pyridin-5-yl)methyl)-2,3,5-trimethylphenoxy)acetic acid], the Emax in assay [1] and in assay [2] was less than 50% each time. The EC50 was more than 25000 nM in assay [1] and less than 50 nM in assay [2].

As for `Cc1cc(OCc2nn[nH]n2)c(C)c(C)c1Cc1ccc2[nH]cc(C(C)C)c2n1` [Compound 10, 5-(4-((2H-tetrazol-5-yl)methoxy)-2,3,6-trimethylbenzyl)-3-isopropyl-1H-pyrrolo[3,2-b]pyridine], in assay [1], the Emax is less than 50% and the EC50 was more than 25000 nM. Besides, in assay [2], the Emax is less than 50% and the EC50 is less than 50 nM.

As for `Cc1cc(OCc2noc(=O)[nH]2)c(C)c(C)c1Cc1ccc2[nH]cc(C(C)C)c2n1` [Compound 11, 3-((4-((3-isopropyl-1H-pyrrolo[3,2-b]pyridin-5-yl)methyl)-2,3,5-trimethylphenoxy)methyl)-1,2,4-oxadiazol-5(4H)-one], the Emax in assay [1], in assay [2] and in assay [3] was less than 50% in each case. Moreover, the values for the EC50 in assay [1], in assay [2] and in assay [3] were more than 25000 nM, less than 50 nM and 100 to 1000 nM, respectively.

As for `N[C@@H](Cc1cc(I)c(Oc2ccc(O)c(I)c2)c(I)c1)C(=O)O` [Reference(T3), triiodothyronine, reference compound], in assay [3], the EC50 is less than 100 nM and the Emax is more than 75%.
